Laboratory results taken from patent US7862815B2, “Methods for inhibiting angiogenesis with inhibitors of proadrenomedullin N-terminal 20 peptide (PAMP)” (The United States of America as represented by the …, priority 2002, dated 2011).

Experiments:
nude mice = test: Directed in vivo Angiogenesis Assay (DIVAA), Example 1; conditions: for FITC-dextran fluorescence of implants (angiogenesis): mean ± standard deviation of five implants
Description: Silicone tubes (0.15 mm outside diameter, New Age Industries, Southampton, Pa.) are cut to 1 cm in length, and one end of each tube is closed with liquid silicone and dried for 24 hours, then autoclaved. A dilution of test substances is prepared in matrigel in sterile cold Eppendorf tubes. Tubes are filled with a Hamilton syringe. Nude mice are anesthetized, and a pocket is made in the dorsal skin of each animal. The tubes are then implanted with the open end first, and the wounds are then sealed.
After nine to eleven days, the tail veins are injected with FITC-dextran to visualize the blood vessels, and the dye is allowed to distribute throughout the vasculature for about 20 minutes. Mice are then euthanized with CO2 and the skin pockets are removed.
Skin is then dissected, keeping the vessels near the mouth of the tube. The matrigel is then displaced from the tube, incubated at 37° C. in the presence of dispase, then vortexed, centrifuged, and matrigel aliquots are transferred into 96-well plates for fluorescent emission. Fluorescence is read in a fluorimeter.
This example provides a description of use of the Directed in vivo Angiogenesis Assay (DIVAA; see Martinez et al., J. Natl. Cancer Inst. 2002; 94:1226-1237) to measure the angiogenic potential of PAMP in comparison to known angiogenesis factors.
Implants were prepared as follows: Silicone tubes (0.15 mm outside diameter, New Age Industries, Southampton, Pa.) were cut to 1 cm in length. One end of each tube was closed with liquid silicone and dried for 24 hours to allow fumes to diffuse out. Tubes were then autoclaved.
A dilution of test substances was prepared in matrigel in sterile cold Eppendorf tubes. A stock of 25× was prepared to avoid diluting the matrigel too much. Tubes were filled with a Hamilton syringe. All the material was kept sterile and cold. Each tube required 18-20 μl. The matrigel was allowed to solidify at 37° C. for at least 30 minutes.
Nude mice were anesthetized with Ketamine and Xylazine (1:4 ratio), 50 μl per mouse, […]. A pocket was made in the dorsal skin of each animal with scissors. The tubes were implanted with the open end first. The wounds were then sealed with surgical clips. Mice were kept warm until they recovered consciousness. Mice were then maintained for nine to eleven days.
Mice were placed under a heating lamp to dilate their tail veins. Tail veins were injected with 25 mg/ml FITC-dextran (Sigma), 100 μl/mouse. After about 20 minutes, the dye had been distributed. Mice were then euthanized with CO2 and the skin pockets were removed and kept in a PBS-wet cloth.
Skin was then dissected out, keeping the vessels near the mouth of the tube. The tube was placed in an Eppendorf tube containing 300 μdispase (Collaborative Biomedical Products). Then the matrigel was displaced from the tube; these were frozen until they were needed later.
Matrigels were thawed and incubated at 37° C. for one hour, then vortexed, centrifuged, and 100 μl was transferred into a 96-well plate for fluorescent emission (black sides). Excitation for FITC was 485 nm. Emission was 535 nm. Fluorescence was read in a fluorometer.

human endothelial cells [1] = test: Migration assay (ChemoTx chamber); assay type: cell-based; conditions: for increase in migration: 10^−11 M, four hour incubation, p<0.001; for concentration of peak of migration stimulation: lower and higher concentrations less efficient
Description: Cell motility was measured as described (Martinez et al., J. Natl. Cancer Inst., 21; 94(16):1226-37, 2002). Test peptides were placed at various concentrations at the bottom of a ChemoTx chamber (NeuroProbe Inc.). The intermediate membrane was coated with 10 μg/ml fibronectin, and in the upper chamber 5.0×10^5 human endothelial cells were added. After a four hour incubation at 37° C., the membrane was fixed and stained (Protocol Hema3, Biochemical Sciences Inc.). The cells trapped in the porous membrane were photographed through a 25× microscope objective and the number of cells per photographic field was counted.

[2] = system: aortic rings of 13 day-old chicken embryos; test: Chick embryo aortic arch assay; assay type: cell-based; conditions: for sprouting of new vessels versus control: 1 nM peptide
Description: The chick embryo aortic arch assay is an ex vivo angiogenesis assay that was performed as previously described (Isaacs, et al., J. Biol. Chem., 16; 277(33):29936-44, 2002; Auerbach et al., Clin. Chem. 49, 32-40, 2003). Briefly, aortic rings of approximately 0.8 mm in length were prepared from the five aortic arches of 13 day-old chicken embryos (Truslow Farms) and the soft connective tissue of the adventitia layer was carefully removed with tweezers. Each aortic ring was placed in the center of a well in a 48-well plate and covered with 10 μl matrigel (BD Biosciences). After the matrigel solidified, 300 μl of growth factor-free human endothelial-SFM basal growth medium (Invitrogen) containing the proper concentration of the test substances were added to each well. The plates were kept in a humid incubator at 37° C. in 5% CO2 for 24-36 hours. Microvessels sprouting from each aortic ring were photographed in an inverted microscope and the area covered by the newly formed capillaries was estimated by image analysis.

human endothelial cells [3] = test: Real-time PCR quantification of gene expression; assay type: cell-based; conditions: for expression of the AM/PAMP gene: addition of 10 nM peptide
Description: Human endothelial cells were cultured in T-75 flasks at a density of 2.5×10^6 cells/well. After the cells were attached to the bottom of the plate, they were treated with 10 nM PAMP in serum-free medium for 24 hours. At the end of this exposure, the cells were washed once with PBS, scraped from the plate and their total RNA was extracted using the RNeasy Mini Kit from Qiagen and reverse transcribed using the SuperScript First-Strand Synthesis system (Invitrogen). Quantification of gene expression was performed by real-time PCR as described (Martinez et al., J. Endocrinol. 176, 95-102, 2003). The PCR reaction was run in an Opticon cycler (MJ Research) using Sybr Green PCR master mix (Applied Biosystems). Thermocycling was performed in a final volume of 25 μl containing 2 μl of cDNA (1:10 dilution) and 400 nM of primers (see below). All targets were amplified in triplicates in the same run as the house-keeping gene, using the following cycle scheme: after initial denaturation of the samples at 95° C. for 2 minutes, 46 cycles of 95° C. for 30 seconds, 60° C. for 30 seconds, and 72° C. for 30 seconds were performed.
Fluorescence was measured in every cycle and mRNA levels were normalized by the 18S RNA values in all samples. A melting curve was run after PCR by increasing temperature from 50° C. to 96° C. (0.5° C. increments). A single peak was obtained for all amplicons, thus confirming the specificity of the reaction.

Row | Substance | FITC-dextran fluorescence of implants (angiogenesis) (nude mice; 10 pM peptide in matrigel) | FITC-dextran fluorescence of implants (angiogenesis) (nude mice; 1 nM peptide in matrigel) | FITC-dextran fluorescence of implants (angiogenesis) (nude mice; 100 nM peptide in matrigel) | FITC-dextran fluorescence of implants (angiogenesis) (nude mice; 1 fM peptide in matrigel) | FITC-dextran fluorescence of implants (angiogenesis) (nude mice; 100 fM peptide in matrigel) | effect on cell migration (human endothelial cells [1]; on the concentration range tested) | sprouting of new vessels versus control [2] | expression of the AM/PAMP gene (human endothelial cells [3]) | angiogenic potency compared with VEGF or AM (nude mice; Table 2, FIG. 1, FIG. 2) | angiogenic potency relative to VEGF and bFGF (nude mice; on a molar basis, based on embryonic chick aortic ring assay and DIVAA) | increase in migration (human endothelial cells [1]) | concentration of peak of migration stimulation (human endothelial cells [1]) | concentrations inducing increase of sprouting blood vessels over untreated controls ([2]; chick embryo aortic rings in matrigel, 24-36 hours) [nM] | expression of PDGF A mRNA (human endothelial cells [3]; 10 nM PAMP, 24 hours) | expression of PDGF B mRNA (human endothelial cells [3]; 10 nM PAMP, 24 hours) | expression of PDGF C mRNA (human endothelial cells [3]; 10 nM PAMP, 24 hours) | expression of VEGF mRNA (human endothelial cells [3]; 10 nM PAMP, 24 hours) | expression of bFGF mRNA (human endothelial cells [3]; 10 nM PAMP, 24 hours) | expression of AM gene mRNA (human endothelial cells [3]; 10 nM PAMP, 24 hours, normalized by 18S RNA) | cell migration at other concentrations (human endothelial cells [1]; concentrations lower than 10^−11 M)
1 | Adrenomedullin [AM] | 1033.2 ± 343 arbitrary fluorescence units | 9590 ± 3164 arbitrary fluorescence units | 13490 ± 2731 arbitrary fluorescence units | 496 ± 275 arbitrary fluorescence units | 787 ± 130 arbitrary fluorescence units | did not modify cell migration significantly | do not promote any significant proliferation over the control | indistinguishable from the untreated controls |  |  |  |  |  |  |  |  |  |  |  | 
2 | proadrenomedullin N-terminal 20 peptide (ARLDVASEFRKKWNKWALSR; listed as Homo sapiens) [PAMP, 20 amino-acid molecule originating from the post-translational processing of pre-proadrenomedullin; synthetic human, purchased from Bachem] | 7611.2 ± 3747 arbitrary fluorescence units | 10122.2 ± 3970 arbitrary fluorescence units | 22283.6 ± 6746 arbitrary fluorescence units | 6837.6 ± 1982 arbitrary fluorescence units | 7044 ± 1727 arbitrary fluorescence units |  | larger than the control |  | significantly more potent | roughly one million | four-fold | 10^−11 M | ≥ 1 | no significant modification | no significant modification | elevating the expression | elevating the expression | elevating the expression | about 50 % over basal levels | 
3 | vascular endothelial growth factor [VEGF] | 863.4 ± 437 arbitrary fluorescence units | 8435 ± 3931 arbitrary fluorescence units | 11206 ± 3735 arbitrary fluorescence units | 1563.2 ± 1643 arbitrary fluorescence units | 571 ± 785 arbitrary fluorescence units |  | do not promote any significant proliferation over the control | indistinguishable from the untreated controls |  |  | four-fold | 10^−11 M |  |  |  |  |  |  |  | also induced a significant increase in cell migration
